Earlier results as cited in patent US7776915B2, “Topical formulations and methods of use” (Tracie Martyn International, LLC, priority 2005, dated 2010).
One block for each compound: values may come before it.

Experiments:
neurites in the brain = conditions: similar to the stimulating effect of nerve growth factor
[1] = dosages above 500 mg/kg body weight
ACE = ACE (Homo sapiens, UniProt P12821); conditions: read-out: ACE inhibitor IC50
ACE, sequence (P12821 30-1306, species assumed): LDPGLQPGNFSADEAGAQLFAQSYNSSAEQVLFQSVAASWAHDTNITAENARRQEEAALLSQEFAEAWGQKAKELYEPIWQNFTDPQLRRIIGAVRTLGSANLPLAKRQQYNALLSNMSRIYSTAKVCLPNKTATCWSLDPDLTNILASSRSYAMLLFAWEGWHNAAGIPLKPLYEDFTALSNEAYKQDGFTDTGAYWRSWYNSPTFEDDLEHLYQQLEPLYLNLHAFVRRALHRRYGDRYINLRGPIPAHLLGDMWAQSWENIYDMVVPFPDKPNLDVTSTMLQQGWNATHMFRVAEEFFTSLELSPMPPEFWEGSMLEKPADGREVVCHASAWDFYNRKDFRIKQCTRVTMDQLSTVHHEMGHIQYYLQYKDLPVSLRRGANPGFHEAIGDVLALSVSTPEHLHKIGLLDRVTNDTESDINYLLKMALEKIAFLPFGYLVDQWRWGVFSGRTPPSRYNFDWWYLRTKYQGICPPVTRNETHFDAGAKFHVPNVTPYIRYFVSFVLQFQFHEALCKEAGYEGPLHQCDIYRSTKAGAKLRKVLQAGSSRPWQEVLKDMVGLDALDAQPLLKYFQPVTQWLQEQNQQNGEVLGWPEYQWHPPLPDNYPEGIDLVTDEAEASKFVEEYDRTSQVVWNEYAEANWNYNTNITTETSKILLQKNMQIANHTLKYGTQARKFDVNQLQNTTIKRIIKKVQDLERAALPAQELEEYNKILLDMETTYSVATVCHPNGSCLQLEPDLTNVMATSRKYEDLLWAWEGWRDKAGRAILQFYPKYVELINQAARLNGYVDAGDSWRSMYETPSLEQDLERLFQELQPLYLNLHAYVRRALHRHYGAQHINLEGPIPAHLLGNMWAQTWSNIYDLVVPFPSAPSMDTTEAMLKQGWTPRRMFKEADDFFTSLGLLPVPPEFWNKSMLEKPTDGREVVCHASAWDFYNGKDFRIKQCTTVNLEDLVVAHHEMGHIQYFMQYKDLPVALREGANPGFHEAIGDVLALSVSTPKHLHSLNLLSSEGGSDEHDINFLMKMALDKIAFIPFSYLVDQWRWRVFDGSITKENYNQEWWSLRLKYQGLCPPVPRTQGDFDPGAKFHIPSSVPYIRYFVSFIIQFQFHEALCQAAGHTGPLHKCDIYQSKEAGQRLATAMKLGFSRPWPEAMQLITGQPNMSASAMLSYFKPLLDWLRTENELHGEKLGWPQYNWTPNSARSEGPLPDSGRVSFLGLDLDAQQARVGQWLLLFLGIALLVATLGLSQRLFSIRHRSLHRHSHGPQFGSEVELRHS

SMILES: CC(=O)O[C@H](CC(=O)[O-])C[N+](C)(C)C.NC(N)=NCCC[C@H](N)C(=O)O [Acetyl-1-carnitine-arginate]
stimulation of the growth of neurites (neurites in the brain): ≤ 19.5%

SMILES: NCCC(=O)N[C@@H](Cc1cnc[nH]1)C(=O)O [Carnosine, β-alanyl-L-histidine]
safety in animal studies [1]: safe

IC50 (ACE): 10.4 µM
SMILES: N[C@@H](CCC(=O)N[C@@H](CS)C(=O)NCC(=O)O)C(=O)O [Glutathione]

water solubility: water-soluble
SMILES: Cc1ncc(CO)c(CN)c1O [Pyridoxamine, 4-aminomethyl-5-hydroxy-6-methyl-3-pyridinemethanol]
